US7081092B2, “Methods and apparatus for monitoring and quantifying the movement of fluid” (IMCOR Pharmaceutical Company, priority 1994, dated 2006)

Key:
Format in all cases: physicochemical
[1] = Solubility/miscibility of liquid form with hexane
Experimental: In such systems, suitable gases are ones that have a solubility/miscibility of their liquid forms with hexane, which is a model for the hydrophobic region of surfactants, of greater than 10% mole/mole at 37° C. For gases with a boiling point below 37° C., e.g. butane and perfluorobutane, this measurement must be carried out at elevated pressure. The adsorbing gas should be present in the bubble gas phase at a concentration of more than 2% by mole fraction of the gas mixture and preferably at about 5%, 10%, 25%, 50%, or 100%. The use of fluorinated surfactants with fluorinated gases is preferred. The liquid phase of the adsorbing gas should be relatively insoluble in water, less than 1% wt./wt. solubility/miscibility.

Solubility in water = experiment: Solubility in water
Description: (§1) In order to stabilize microbubbles in this fashion and provide desirable harmonic characteristics, the osmotic agent is preferably present in the gas phase of the bubble at a mole fraction concentration of greater than approximately 2%, and more preferably at about 5%, 10%, 25%, 50%, or 100%. The vapor inside the bubble is preferably near saturation under the conditions of examination, preferably at least about 50%, 75% or 100% of the saturation concentration. Thus, for microbubbles used for imaging in a human, the liquid phase of the vapor in the bubble must have a vapor pressure at 37° C. greater than 2% of the pressure inside the bubble (one atmosphere plus the blood pressure of the human being examined plus the pressure caused by the surface tension of the bubble, the LaPlace pressure). This total pressure for 3 micron bubbles could reach 1.5 bar and thus requires the liquid phase of the vapor in the bubble to have a vapor pressure at 37° C. greater than approximately 23 torr. The liquid phase of the vapor should also have a low solubility in water, preferably less than 1% wt./wt.
In such systems, suitable gases are ones that have a solubility/miscibility of their liquid forms with hexane, which is a model for the hydrophobic region of surfactants, of greater than 10% mole/mole at 37° C. […]

Vapor pressure at 37° C. = experiment: Vapor pressure at 37° C.
Description: as §1

Solubility in hexane [1] | Water solubility (Solubility in water) | Vapor pressure (Vapor pressure at 37° C.) | Solubility in water and hexane versus criteria for adsorption in surfactant layer [1] | Structure (SMILES)
greater than 10 % mole/mole | less than 1 % wt./wt. | – | – | FC(F)(F)C(F)(F)C(F)(F)C(F)(F)F [perfluorobutane]
– | less than 1 % wt./wt. | over 23 torr | – | FC(F)(F)C(F)(F)C(F)(F)C(F)(F)C(F)(F)C(F)(F)F [perfluorohexane]
– | – | – | meet the criteria above | FC(F)(F)C(F)(F)C(F)(F)C(F)(F)C(F)(F)F [perfluoropentane]
